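The concentration for 50% growth inhibition is given as GI50. TGI is the concentration that stops growth completely.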
Experiments:
Test in all cases: NCI tumour cell line growth inhibition, 384-well format; in the data active = GI50 below about 0.43 µM; inactive = the rest
[1] = tested on: SW-620 colon
[2] = tested on: SF-268 CNS
[3] = tested on: U251 glioblastoma
[4] = tested on: HOP-62 NSCLC
[5] = tested on: COLO 205 colon
[6] = tested on: CAKI-1 renal
[7] = tested on: NCI-H322M lung
[8] = tested on: SNB-75 CNS
[9] = tested on: SK-MEL-2 melanoma
[10] = tested on: NCI-H460 NSCLC
[11] = tested on: SK-OV-3 ovarian
[12] = tested on: NCI/ADR-RES ovarian
[13] = tested on: HOP-92 NSCLC
[14] = tested on: SK-MEL-28 melanoma
[15] = tested on: SR leukemia
[16] = tested on: T-47D breast
[17] = tested on: K-562 leukemia
[18] = tested on: OVCAR-4 ovarian
[19] = tested on: OVCAR-3 ovarian
[20] = tested on: MDA-MB-435 melanoma
[21] = tested on: UACC-257 melanoma
[22] = tested on: HL-60(TB) leukemia
[23] = tested on: NCI-H226 lung
[24] = tested on: SK-MEL-5 melanoma

C[C@@H](c1ccc2nccn2c1)n1nnc2ncc(-c3cnn(C)c3)nc21
inactive: GI50 [2] > 100 µM | GI50 [3] > 100 µM | GI50 [4] > 92.4 µM | GI50 [5] > 100 µM | GI50 [6] > 51.5 µM | GI50 [7] > 100 µM | GI50 [8] > 76.8 µM | GI50 [9] > 100 µM | GI50 [10] > 100 µM | GI50 [11] > 100 µM | GI50 [12] > 100 µM | GI50 [13] > 100 µM | GI50 [14] > 100 µM | GI50 [15] 43.3 µM | GI50 [16] > 61.2 µM | GI50 [17] 44.8 µM | GI50 [18] > 94.4 µM | GI50 [19] > 100 µM | GI50 [20] > 100 µM | GI50 [21] > 100 µM | GI50 [22] > 92.2 µM | GI50 [23] > 100 µM | GI50 [24] > 92.7 µM
> 100 µM: TGI [1] | TGI [2] | TGI [3] | TGI [4] | TGI [5] | TGI [6] | TGI [7] | TGI [8] | TGI [9] | TGI [10] | TGI [11] | TGI [12] | TGI [13] | TGI [14] | TGI [15] | TGI [16] | TGI [17] | TGI [18] | TGI [19] | TGI [20] | TGI [21] | TGI [22] | TGI [23] | TGI [24]

— PubChem BioAssay (NCI)
